Laboratory results published in patent publication US8835644B2, “Broad spectrum benzothiophene-nitrothiazolide and other antimicrobials” (University of Virginia Patent Foundation, priority 2009, dated 2014).
≈ marks a conversion by molar mass, not a printed value. Like-named read-outs stand apart in the source and are kept apart here.

Tests used:
[1] = tested on: H. pylori; assay: MIC testing by broth dilution, H. pylori; type: cell-based, Helicobacter pylori
Procedure, shortened: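 Broth dilution MIC determination against H. pylori: a standard inoculum in 100 microliters of Brain Heart Infusion medium was placed in 96 well microplates. Test compounds began at 32 μg/ml in 200 microliters in well one and were serially diluted over a 32 to 0.06 range. After 24 h, plates were scored by eye and the first well without growth was recorded as the MIC.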

[2] = tested on: C. jejuni; assay: MIC testing by broth dilution, C. jejuni; type: cell-based, Campylobacter jejuni
Procedure, shortened: (§1)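 Values are broth-dilution MICs, defined as the well showing no growth on visual reading after 24 h; the tested range was 32 to 0.06 μg/ml, in organism-specific media (LB, Trypticase Soy, Brain Heart Infusion). The C. difficile entries come instead from anaerobic Kirby-Bauer disk zones, normalised to NTZ.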

[3] = tested on: MRSA; assay: MIC testing by broth dilution, MRSA; type: cell-based, Staphylococcus aureus
Procedure, shortened: as §1

[4] = tested on: S. epidermidis; assay: MIC testing by broth dilution, S. epidermidis plank; type: cell-based, Staphylococcus epidermidis
Procedure, shortened: as §1

[5] = tested on: PFOR (pyruvate ferredoxin oxidoreductase); assay: Direct PFOR enzyme assay; type: biochemical
Experimental: (§2) Representative compounds of the invention were tested in a series of assays against a series of organisms as described above. […] The organisms tested include, C. difficile, H. pylori, C. jejuni, MRSA, S. epidermidis, and E. coli. S. epidermidis and E. coli were tested in the plank and biofilm assay. A disk diffusion assay was also used for C. difficile. Direct PFOR enzyme assays were also performed. All analogues and derivatives were not tested on every organism in every type of assay (the “-” in each table means that it was not tested).

[6] = tested on: S. epidermidis biofilm; assay: S. epidermidis biofilm assay (activity tables); type: cell-based, Staphylococcus epidermidis
Experimental: Staphylococcal strains were cultured overnight in TSB at 37° C. with shaking, diluted in fresh medium to an OD600 of 0.01 and 200 W was dispensed into sterile flat bottom polystyrene 96 well microtiter plates (Costar 3596, Corning Inc.). […] Each compound and dilution was tested in triplicate. The plates were incubated overnight at 37° C. in a humidified incubator, without shaking and both growth and biofilm accumulation were determined at 16 h.
Following recording of turbidities, the culture medium was aspirated and the wells were washed three times with distilled water, blotted on paper towels, and fixed with 75% ethanol for 10 minutes.
To visualize biofilm material, 0.5% crystal violet was added to each well and after 5 minutes was removed and the wells washed three times with distilled water. Plates were read using a microplate reader at a wavelength of 570 nm. The dye was then extracted by adding 200 W of 95% ethanol, and the absorbance was read again at 570 nm. All assays were performed in triplicate and the mean and standard deviation determined. […]
as §2

[7] = tested on: E. coli; assay: MIC testing by broth dilution, E. coli plank; type: cell-based, Escherichia coli
Procedure, shortened: as §1

[8] = tested on: E. coli biofilm; assay: E. coli biofilm assay (activity tables); type: cell-based, Escherichia coli; conditions: biofilm
Procedure, shortened: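 After 24 h static culture at 37 °C in wells containing NTZ, strain 042 (1:100 inoculum) biofilm was quantified by 0.5% crystal violet absorbance at 570 nm. Planktonic growth was taken from turbidity or LB plate counts as cfu/ml; all runs triplicate, reported as mean and SD.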

[9] = tested on: C. difficile; assay: Disk diffusion (Kirby Bower), C. difficile; type: cell-based, Clostridium difficile
Experimental: A standard broth dilution protocol was used in 96 well microplates containing a standard dilution of the microorganism to be tested in 100 microliters of the appropriate medium. Appropriate medium: E. coli, LB medium; Staphylococcus strains, Trypticase Soy; and for H. pylori and C. jejuni, Brain Heart Infusion. The compounds to be tested were set at 32 μg/ml in 200 microliters in well one and then serially diluted to provide a range from 32 to 0.06. The wells were scored visually at 24 h. The well where there was no growth was recorded as the MIC. Clostridium difficile was tested by agar diffusion and disk diffusion (Kirby Bower) methods under anaerobic conditions on Wilkins Chalgrin agar. In these assays, zone of inhibited growth was measured and compared by relative ratio to the zone recorded for NTZ.
as §2

[10] = 2-amino-3,5-dinitrothiophene analogues table, read-out: MIC H. pylori
[11] = 2-amino-3,5-dinitrothiophene analogues table, read-out: MIC C. jejuni
[12] = 2-amino-3,5-dinitrothiophene analogues table, read-out: MIC MRSA
[13] = planktonic, 2-amino-3,5-dinitrothiophene analogues table, read-out: MIC S. epidermidis Plank
[14] = * biphasic initial inhibition followed by uninhibited rate, ** caused some precipitant in extract

## O=C(Nc1ncc([N+](=O)[O-])s1)c1ccc(-c2ccc(F)cc2)o1 [VPC16a1104]
[1]; Furan analogues table, read-out: MIC H. pylori
  MIC: 1.0 µM (≈ 0.333 µg/mL)
[2]; Furan analogues table, read-out: MIC C. jejuni
  MIC: 96.0 µM (≈ 32 µg/mL)
[3]; Furan analogues table, read-out: MIC MRSA
  MIC: 96.0 µM (≈ 32 µg/mL)
[4]; planktonic, Furan analogues table, read-out: MIC S. epidermidis Plank
  MIC: 96.0 µM (≈ 32 µg/mL)
[5]; Furan analogues table
  PFOR inhibition relative to nitazoxanide (=100): 81%

## CCCCCCCC(=O)Nc1ncc([N+](=O)[O-])s1 [VPC16b1046]
[1]; broth dilution, Brain Heart Infusion, 24 h, read-out: MIC (μM) H. pylori
  MIC: 0.8 µM (≈ 0.217 µg/mL)
[2]; broth dilution, Brain Heart Infusion, 24 h, read-out: MIC (μM) C. jejuni
  MIC: 106.9 µM (≈ 29 µg/mL)
[3]; broth dilution, Trypticase Soy, 24 h, read-out: MIC (μM) MRSA
  MIC: 59.0 µM (≈ 16 µg/mL)
[4]; broth dilution, Trypticase Soy, 24 h, read-out: MIC (μM) S. epidermidis Plank
  MIC: 11.1 µM (≈ 3.01 µg/mL)
[6]
  MIC (μM) S. epidermidis Biofilm: 7.4 µM (≈ 2.01 µg/mL)
[7]; broth dilution, LB medium, 24 h, read-out: MIC (μM) E. coli Plank
  MIC: 117.9 µM (≈ 32 µg/mL)
[8]; read-out: MIC (μM) E. coli Biofilm
  MIC: 88.4 µM (≈ 24 µg/mL)
[9]; zone of inhibited growth as relative ratio to the zone for NTZ
  Disk Diffusion (%) C. difficile: 54 ± 4%

## O=C(Nc1sc([N+](=O)[O-])cc1[N+](=O)[O-])c1ccc(Br)o1 [VPC16b2023]
[1]; [10]
  MIC: 2.1 µM (≈ 0.76 µg/mL)
[2]; [11]
  MIC: 2.8 µM (≈ 1.01 µg/mL)
[3]; [12]
  MIC: 33.1 µM (≈ 12 µg/mL)
[4]; [13]
  MIC: 88.4 µM (≈ 32 µg/mL)
[5]; [14]
  PFOR inhibition relative to nitazoxanide (=100): 94** %

## O=C(Nc1sc([N+](=O)[O-])cc1[N+](=O)[O-])c1ccc(Br)s1 [VPC16b2025]
[1]; [10]
  MIC: 2.6 µM (≈ 0.983 µg/mL)
[2]; [11]
  MIC: 2.6 µM (≈ 0.983 µg/mL)
[3]; [12]
  MIC: 63.5 µM (≈ 24 µg/mL)
[4]; [13]
  MIC: 15.9 µM (≈ 6.01 µg/mL)
[5]; [14]
  PFOR inhibition relative to nitazoxanide (=100): 98** %

## O=C(Nc1sc([N+](=O)[O-])cc1[N+](=O)[O-])c1cc(C(F)(F)F)ccc1Cl [VPC16b2026, 2-Chloro-N-(3,5-dinitrothiophen-2-yl)-5-(trifluoromethyl)benzamide]
[1]; Helicobacter pylori, read-out: MIC H. pylori
  MIC: 0.8 µM (≈ 0.317 µg/mL)
[2]; Campylobacter jejuni, read-out: MIC C. jejuni
  MIC: 2.5 µM (≈ 0.989 µg/mL)
[3]; Staphylococcus aureus, MRSA, read-out: MIC MRSA
  MIC: 30.3 µM (≈ 12 µg/mL)
[4]; Staphylococcus epidermidis, read-out: MIC S. epidermidis Plank
  MIC: 15.2 µM (≈ 6.01 µg/mL)
[5]; [14]
  PFOR inhibition relative to nitazoxanide (=100): 100%

## O=C(Nc1ncc([N+](=O)[O-])s1)c1ccc(-c2ccccc2C(F)(F)F)o1 [VPC161196, N-(5-Nitrothiazol-2-yl)-5-(2-(trifluoromethyl)phenyl)furan-2-carboxamide]
[1]; Helicobacter pylori, Furan analogues table, read-out: MIC H. pylori
  MIC: 1.1 µM (≈ 0.422 µg/mL)
[2]; Campylobacter jejuni, Furan analogues table, read-out: MIC C. jejuni
  MIC: 8.5 µM (≈ 3.26 µg/mL)
[3]; Staphylococcus aureus, MRSA, Furan analogues table, read-out: MIC MRSA
  MIC: 2.8 µM (≈ 1.07 µg/mL)
[4]; Staphylococcus epidermidis, planktonic, Furan analogues table, read-out: MIC S. epidermidis Plank
  MIC: 5.7 µM (≈ 2.18 µg/mL)
[6]; Furan analogues table
  MIC S. epidermidis Biofilm: 5.7 µM (≈ 2.18 µg/mL)
[7]; Escherichia coli, planktonic, Furan analogues table, read-out: MIC E. coli Plank
  MIC: 90.8 µM (≈ 34.8 µg/mL)
[8]; Escherichia coli, Furan analogues table, read-out: MIC E. coli Biofilm
  MIC: 90.8 µM (≈ 34.8 µg/mL)
[9]; Nitazoxanide = 100, Furan analogues table
  Disk Diff (%) C. difficile: 70.5 ± 0.5%
